Measured values from US20230295131A1, “INHIBITORS OF RHO-ASSOCIATED COILED-COIL KINASE” (Angion Biomedica Corp., priority 2020, published 2023).
Where two headings read alike, the source gives them in different places.

Legend:
[1] = molecular target: T1, ROCK1 (Homo sapiens, UniProt Q13464); assay: ROCK1 kinase binding affinity, DiscoverX KINOMEscan KdELECT; conditions: 11-point 3-fold dilution
T1 construct: T7 phage fusion (kinase-tagged phage) or DNA tag for qPCR detection
Method: (§1) 1. ROCK1 and ROCK2 kinase assays: The ROCK1 and ROCK2 kinase binding affinities of compounds in this disclosure were determined by DiscoverX's KINOMEscan™ KdELECT technology (https://www.discoverx.com/kinomescan-elect-kinase-screening-and-profiling-services): Kinase-tagged T7 phage strains were prepared in an E. coli host derived from the BL21 strain. E. coli were grown to log-phase and infected with T7 phage and incubated with shaking at 32° C. until lysis. The lysates were centrifuged and filtered to remove cell debris. The remaining kinases were produced in HEK-293 cells and subsequently tagged with DNA for qPCR detection. […] The liganded beads were blocked with excess biotin and washed with blocking buffer (SeaBlock (Pierce), 1% BSA, 0.05% Tween 20, 1 mM DTT) to remove unbound ligand and to reduce nonspecific binding. […] Kds were determined using an 11-point 3-fold compound dilution series with three DMSO control points. […] The compounds were then diluted directly into the assays such that the final concentration of DMSO was 0.9%. All reactions performed in polypropylene 384-well plate. Each was a final volume of 0.02 ml. […] The kinase concentration in the eluates was measured by qPCR.

[2] = molecular target: T2, ROCK2 (Homo sapiens, UniProt O75116); assay: ROCK2 kinase binding affinity, DiscoverX KINOMEscan KdELECT; conditions: for ROCK2 Selectivity: selectivity for ROCK2 over ROCK1 from Kd
T2 construct: T7 phage fusion (kinase-tagged phage) or DNA tag for qPCR detection
Method: as §1

[3] = KINOMEscan KdELECT, 11-point 3-fold dilution, read-out: Kd (μM) ROCK2

T1 sequence (Q13464 whole entry, the tested form may be a part): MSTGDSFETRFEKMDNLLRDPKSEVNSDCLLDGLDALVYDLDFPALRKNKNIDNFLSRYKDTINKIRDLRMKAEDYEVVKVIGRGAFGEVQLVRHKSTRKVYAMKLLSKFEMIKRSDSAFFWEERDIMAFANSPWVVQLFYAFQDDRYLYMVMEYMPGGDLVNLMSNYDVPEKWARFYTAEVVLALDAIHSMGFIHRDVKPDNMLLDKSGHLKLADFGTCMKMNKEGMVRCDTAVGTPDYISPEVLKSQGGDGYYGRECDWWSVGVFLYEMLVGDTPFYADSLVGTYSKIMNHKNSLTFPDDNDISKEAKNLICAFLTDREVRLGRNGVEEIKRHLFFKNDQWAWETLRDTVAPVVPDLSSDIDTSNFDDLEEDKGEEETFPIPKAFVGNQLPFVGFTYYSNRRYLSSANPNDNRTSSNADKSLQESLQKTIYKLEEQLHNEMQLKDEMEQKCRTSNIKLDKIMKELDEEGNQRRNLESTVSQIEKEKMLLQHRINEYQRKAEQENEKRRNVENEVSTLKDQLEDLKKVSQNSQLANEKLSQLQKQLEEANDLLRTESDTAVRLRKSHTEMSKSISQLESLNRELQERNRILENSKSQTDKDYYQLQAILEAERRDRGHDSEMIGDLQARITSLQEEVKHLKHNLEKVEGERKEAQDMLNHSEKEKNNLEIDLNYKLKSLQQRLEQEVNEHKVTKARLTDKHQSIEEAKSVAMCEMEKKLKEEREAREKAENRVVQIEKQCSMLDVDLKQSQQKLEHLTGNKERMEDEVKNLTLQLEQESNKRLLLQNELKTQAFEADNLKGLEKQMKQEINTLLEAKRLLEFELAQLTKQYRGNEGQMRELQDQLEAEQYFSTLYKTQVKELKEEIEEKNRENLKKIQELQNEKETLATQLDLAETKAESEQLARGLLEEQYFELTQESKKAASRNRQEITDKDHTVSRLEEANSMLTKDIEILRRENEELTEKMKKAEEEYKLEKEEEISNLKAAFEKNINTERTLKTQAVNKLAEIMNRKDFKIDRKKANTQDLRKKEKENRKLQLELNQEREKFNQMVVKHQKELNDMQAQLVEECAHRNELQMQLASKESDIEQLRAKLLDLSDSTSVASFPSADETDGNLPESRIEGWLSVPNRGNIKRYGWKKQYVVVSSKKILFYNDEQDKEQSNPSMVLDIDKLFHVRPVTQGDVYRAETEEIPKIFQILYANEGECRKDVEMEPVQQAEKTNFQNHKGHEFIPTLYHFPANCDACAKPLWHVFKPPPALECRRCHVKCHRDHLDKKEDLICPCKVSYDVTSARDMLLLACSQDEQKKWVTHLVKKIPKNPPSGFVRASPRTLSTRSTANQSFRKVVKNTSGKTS
T2 sequence (O75116 whole entry, the tested form may be a part): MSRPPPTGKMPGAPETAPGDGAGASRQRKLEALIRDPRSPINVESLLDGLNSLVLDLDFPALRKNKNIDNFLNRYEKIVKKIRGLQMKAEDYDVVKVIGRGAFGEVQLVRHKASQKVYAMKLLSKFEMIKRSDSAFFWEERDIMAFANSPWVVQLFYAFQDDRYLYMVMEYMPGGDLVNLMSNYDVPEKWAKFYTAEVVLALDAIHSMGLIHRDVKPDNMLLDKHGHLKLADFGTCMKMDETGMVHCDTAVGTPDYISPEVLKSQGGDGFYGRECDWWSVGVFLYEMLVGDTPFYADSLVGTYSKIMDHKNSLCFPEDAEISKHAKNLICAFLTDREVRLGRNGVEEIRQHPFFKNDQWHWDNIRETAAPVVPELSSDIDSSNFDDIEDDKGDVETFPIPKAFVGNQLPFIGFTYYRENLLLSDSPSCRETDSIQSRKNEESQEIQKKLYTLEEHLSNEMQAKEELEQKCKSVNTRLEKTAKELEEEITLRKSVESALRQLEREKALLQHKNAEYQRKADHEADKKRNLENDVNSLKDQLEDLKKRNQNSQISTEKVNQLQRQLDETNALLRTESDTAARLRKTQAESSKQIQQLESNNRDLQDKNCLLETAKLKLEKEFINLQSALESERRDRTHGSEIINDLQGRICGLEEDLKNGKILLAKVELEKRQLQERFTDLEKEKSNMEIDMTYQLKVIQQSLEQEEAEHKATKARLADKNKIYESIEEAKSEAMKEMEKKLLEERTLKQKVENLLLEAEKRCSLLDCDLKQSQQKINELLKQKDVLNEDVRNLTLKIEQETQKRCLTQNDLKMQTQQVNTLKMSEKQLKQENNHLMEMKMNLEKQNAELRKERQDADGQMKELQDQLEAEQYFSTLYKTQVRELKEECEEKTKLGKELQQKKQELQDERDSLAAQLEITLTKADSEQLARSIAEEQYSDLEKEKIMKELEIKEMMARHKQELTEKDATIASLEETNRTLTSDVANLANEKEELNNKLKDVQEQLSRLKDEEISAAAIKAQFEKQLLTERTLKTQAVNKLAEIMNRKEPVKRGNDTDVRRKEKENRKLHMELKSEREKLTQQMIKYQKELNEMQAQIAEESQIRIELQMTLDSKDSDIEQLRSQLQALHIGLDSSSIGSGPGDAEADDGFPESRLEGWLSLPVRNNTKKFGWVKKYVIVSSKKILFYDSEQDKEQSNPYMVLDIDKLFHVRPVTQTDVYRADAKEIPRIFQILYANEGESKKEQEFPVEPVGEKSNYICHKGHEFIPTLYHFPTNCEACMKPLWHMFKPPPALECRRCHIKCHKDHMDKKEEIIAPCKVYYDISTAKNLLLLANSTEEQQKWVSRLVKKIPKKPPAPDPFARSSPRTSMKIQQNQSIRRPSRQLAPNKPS

Structure (SMILES) | Kd [1] | Kd [2, 3] | ROCK2 Selectivity [2] | Kd [2]
O[C@H]1CC[C@@H](Nc2nccc(-c3nccc(C#Cc4ccc5cncn5c4)n3)n2)CC1 [Ex. 96, (1s,4s)-4-((4-(Imidazo[1,5-a]pyridin-6-ylethynyl)-[2,4′-bipyrimidin]-2′-yl)amino)cyclohexanol] | 10 to 100 µM | 0.01 to 0.099 µM | ** (50 to 150-fold selectivity for ROCK2) | 
Cc1ccnc(F)c1CNc1nccc(-c2nccc(C#Cc3ccc4[nH]ncc4c3)n2)n1 [Ex. 70, 4-((1H-Indazol-5-yl)ethynyl)-N-((2-fluoro-4-methylpyridin-3-yl)methyl)-[2,4′-bipyrimidin]-2′-amine] | 10 to 100 µM | 0.01 to 0.099 µM | **** (>500-fold selectivity for ROCK2) | 
Fc1cc(CNc2nccc(-c3nccc(C#Cc4ccc5[nH]nc(F)c5c4)n3)n2)ccn1 [Ex. 61, 4-((3-Fluoro-1H-indazol-5-yl)ethynyl)-N-((2-fluoropyridin-4-yl)methyl)-[2,4′-bipyrimidin]-2′-amine] | 10 to 100 µM | 0.01 to 0.099 µM | *** (151 to 500-fold selectivity for ROCK2) | 
Cc1cnc(CNc2nccc(-c3nccc(C#Cc4ccc5[nH]ncc5c4)n3)n2)nc1 [Ex. 4, 4-((1H-Indazol-5-yl)ethynyl)-N-((5-methylpyrimidin-2-yl)methyl)-[2,4′-bipyrimidin]-2′-amine] | 1 to 9.9 µM | 0.1 to 0.99 µM | * (<50-fold selectivity for ROCK2) | 
O=S1(=O)CCC(CNc2nccc(-c3nccc(C#Cc4ccc5[nH]ncc5c4)n3)n2)CC1 [Ex. 85, 4-(((4-((1H-Indazol-5-yl)ethynyl)-[2,4′-bipyrimidin]-2′-yl)amino)methyl)tetrahydro-2H-thiopyran 1,1-dioxide] | 1 to 9.9 µM | < 0.01 µM | *** (151 to 500-fold selectivity for ROCK2) | 
Fc1ccc(CNc2nccc(-c3nccc(C#Cc4ccc5[nH]ncc5c4)n3)n2)cc1 [Ex. 8, 4-((1H-Indazol-5-yl)ethynyl)-N-(4-fluorobenzyl)-[2,4′-bipyrimidin]-2′-amine] | 1 to 9.9 µM | 0.01 to 0.099 µM | *** (151 to 500-fold selectivity for ROCK2) | 
CN(Cc1ccc(F)cn1)c1nccc(-c2nccc(C#Cc3ccc4[nH]ncc4c3)n2)n1 [Ex. 30, 4-((1H-Indazol-5-yl)ethynyl)-N-((5-fluoropyridin-2-yl)methyl)-N-methyl-[2,4′-bipyrimidin]-2′-amine] | 1 to 9.9 µM | 0.1 to 0.99 µM | * (<50-fold selectivity for ROCK2) | 
Fc1ccc(CCNc2nccc(-c3nccc(C#Cc4ccc5[nH]ncc5c4)n3)n2)nc1 [Ex. 39, 4-((1H-Indazol-5-yl)ethynyl)-N-(2-(5-fluoropyridin-2-yl)ethyl)-[2,4′-bipyrimidin]-2′-amine] | 1 to 9.9 µM | 0.01 to 0.099 µM | ** (50 to 150-fold selectivity for ROCK2) | 
CNC(=O)CNc1nccc(-c2nccc(C#Cc3ccc4[nH]ncc4c3)n2)n1 [Ex. 55, 2-((4-((1H-Indazol-5-yl)ethynyl)-[2,4′-bipyrimidin]-2′-yl)amino)-N-methylacetamide] | 1 to 9.9 µM | 0.01 to 0.099 µM | ** (50 to 150-fold selectivity for ROCK2) | 
O=C(CNc1nccc(-c2nccc(C#Cc3ccc4[nH]nc(F)c4c3)n2)n1)N1CCOCC1 [Ex. 77, 2-((4-((3-Fluoro-1H-indazol-5-yl)ethynyl)-[2,4′-bipyrimidin]-2′-yl)amino)-1-morpholinoethanone] | 10 to 100 µM | 0.01 to 0.099 µM | *** (151 to 500-fold selectivity for ROCK2) | 
CN(C)CCNc1nccc(-c2nccc(C#Cc3ccc4[nH]ncc4c3)n2)n1 [Ex. 54, N1-(4-((1H-Indazol-5-yl)ethynyl)-[2,4′-bipyrimidin]-2′-yl)-N2,N2-dimethylethane-1,2-diamine] | 1 to 9.9 µM | 0.1 to 0.99 µM | * (<50-fold selectivity for ROCK2) | 
C[C@@H](O)CNc1nccc(-c2nccc(C#Cc3ccc4[nH]ncc4c3)n2)n1 [Ex. 79, (R)-1-((4-((1H-Indazol-5-yl)ethynyl)-[2,4′-bipyrimidin]-2′-yl)amino)propan-2-ol] | 1 to 9.9 µM |  | ** (50 to 150-fold selectivity for ROCK2) | 0.01 to 0.099 µM
Fc1cc(F)c(F)c(CNc2nccc(-c3nccc(C#Cc4ccc5[nH]nc(F)c5c4)n3)n2)c1 [Ex. 60, 4-((3-Fluoro-1H-indazol-5-yl)ethynyl)-N-(2,3,5-trifluorobenzyl)-[2,4′-bipyrimidin]-2′-amine] | 10 to 100 µM | 1 to 9.9 µM | * (<50-fold selectivity for ROCK2) | 

Now from value to compound, other results behind:

Kd [1] | Kd [2, 3] | Structure (SMILES) | ROCK2 Selectivity [2] | Kd [2]
1 to 9.9 µM | 0.01 to 0.099 µM | COc1ccccc1CNc1nccc(-c2nccc(C#Cc3ccc4[nH]ncc4c3)n2)n1 [Ex. 18, 4-((1H-Indazol-5-yl)ethynyl)-N-(2-methoxybenzyl)-[2,4′-bipyrimidin]-2′-amine] | ** (50 to 150-fold selectivity for ROCK2) | 
1 to 9.9 µM | 0.1 to 0.99 µM | C(#Cc1ccnc(-c2ccnc(NCC3CCCCN3)n2)n1)c1ccc2[nH]ncc2c1 (stereo not drawn) [Ex. 9, 4-((1H-Indazol-5-yl)ethynyl)-N-(piperidin-2-ylmethyl)-[2,4′-bipyrimidin]-2′-amine] | * (<50-fold selectivity for ROCK2) | 
0.1 to 0.99 µM | < 0.01 µM | Clc1ccc(CNc2nccc(-c3nccc(C#Cc4ccc5[nH]ncc5c4)n3)n2)nc1 [Ex. 16, 4-((1H-Indazol-5-yl)ethynyl)-N-((5-chloropyridin-2-yl)methyl)-[2,4′-bipyrimidin]-2′-amine] | * (<50-fold selectivity for ROCK2) | 
0.1 to 0.99 µM | < 0.01 µM | C(#Cc1ccnc(-c2ccnc(NC[C@@H]3CCCO3)n2)n1)c1ccc2[nH]ncc2c1 [Ex. 35, (S)-4-((1H-Indazol-5-yl)ethynyl)-N-((tetrahydrofuran-2-yl)methyl)-[2,4′-bipyrimidin]-2′-amine] | *** (151 to 500-fold selectivity for ROCK2) | 
0.1 to 0.99 µM | 0.01 to 0.099 µM | O=S1(=O)CC[C@@H](Nc2nccc(-c3nccc(C#Cc4ccc5[nH]ncc5c4)n3)n2)C1 [Ex. 88, (R)-3-((4-((1H-Indazol-5-yl)ethynyl)-[2,4′-bipyrimidin]-2′-yl)amino)tetrahydrothiophene 1,1-dioxide] | * (<50-fold selectivity for ROCK2) | 
1 to 9.9 µM | 0.1 to 0.99 µM | CC(C)(N)CNc1nccc(-c2nccc(C#Cc3ccc4[nH]ncc4c3)n2)n1 [Ex. 89, N1-(4-((1H-Indazol-5-yl)ethynyl)-[2,4′-bipyrimidin]-2′-yl)-2-methylpropane-1,2-diamine] | * (<50-fold selectivity for ROCK2) | 
1 to 9.9 µM | 0.01 to 0.099 µM | Fc1ccnc(CNc2nccc(-c3nccc(C#Cc4ccc5[nH]ncc5c4)n3)n2)c1 [Ex. 10, 4-((1H-Indazol-5-yl)ethynyl)-N-((4-fluoropyridin-2-yl)methyl)-[2,4′-bipyrimidin]-2′-amine] | ** (50 to 150-fold selectivity for ROCK2) | 
1 to 9.9 µM | < 0.01 µM | CS(=O)(=O)CCNc1nccc(-c2nccc(C#Cc3ccc4[nH]ncc4c3)n2)n1 [Ex. 56, 4-((1H-Indazol-5-yl)ethynyl)-N-(2-(methylsulfonyl)ethyl)-[2,4′-bipyrimidin]-2′-amine] | **** (>500-fold selectivity for ROCK2) | 
1 to 9.9 µM | < 0.01 µM | O[C@@H]1CC[C@@H](Nc2nccc(-c3nccc(C#Cc4ccc5[nH]ncc5c4)n3)n2)C1 [Ex. 78, (1R,3R)-3-((4-((1H-Indazol-5-yl)ethynyl)-[2,4′-bipyrimidin]-2′-yl)amino)cyclopentanol] | *** (151 to 500-fold selectivity for ROCK2) | 
1 to 9.9 µM | 0.01 to 0.099 µM | Fc1ncccc1CNc1nccc(-c2nccc(C#Cc3cc(F)c4[nH]ncc4c3)n2)n1 [Ex. 42, 4-((7-Fluoro-1H-indazol-5-yl)ethynyl)-N-((2-fluoropyridin-3-yl)methyl)-[2,4′-bipyrimidin]-2′-amine] | ** (50 to 150-fold selectivity for ROCK2) | 
0.1 to 0.99 µM | 0.01 to 0.099 µM | C(#Cc1ccnc(-c2ccnc(NCc3cc4ccccc4cn3)n2)n1)c1ccc2[nH]ncc2c1 [Ex. 25, 4-((1H-Indazol-5-yl)ethynyl)-N-(isoquinolin-3-ylmethyl)-[2,4′-bipyrimidin]-2′-amine] | * (<50-fold selectivity for ROCK2) | 
1 to 9.9 µM | 0.01 to 0.099 µM | COC(C)(C)CNc1nccc(-c2nccc(C#Cc3ccc4[nH]ncc4c3)n2)n1 [Ex. 81, 4-((1H-Indazol-5-yl)ethynyl)-N-(2-methoxy-2-methylpropyl)-[2,4′-bipyrimidin]-2′-amine] | ** (50 to 150-fold selectivity for ROCK2) | 
1 to 9.9 µM | < 0.01 µM | C(#Cc1ccnc(-c2ccnc(N[C@H]3CCOC3)n2)n1)c1ccc2[nH]ncc2c1 [Ex. 62, (S)-4-((1H-Indazol-5-yl)ethynyl)-N-(tetrahydrofuran-3-yl)-[2,4′-bipyrimidin]-2′-amine] | *** (151 to 500-fold selectivity for ROCK2) | 
0.1 to 0.99 µM | 0.01 to 0.099 µM | O=C(O)[C@H]1CC[C@@H](Nc2nccc(-c3nccc(C#Cc4ccc5[nH]ncc5c4)n3)n2)CC1 [Ex. 92, (1s,4s)-4-((4-((1H-Indazol-5-yl)ethynyl)-[2,4′-bipyrimidin]-2′-yl)amino)cyclohexanecarboxylic acid] | * (<50-fold selectivity for ROCK2) | 
